For 9 compounds, TGI results are on record in PubChem BioAssay (NCI).

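These data come from cells grown in 96-well plates and exposed to compound for 48 hours at five concentrations. The concentration for full growth arrest is given as TGI.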

Among the test systems are DU-145 prostate; OVCAR-4 ovarian; SF-539 CNS; UACC-257 melanoma; HCC-2998 colon; CCRF-CEM leukemia; ACHN renal; IGROV1 ovarian; SK-MEL-28 melanoma; SF-295 CNS; MDA-MB-435; SW-620 colon; OVCAR-5 ovarian; BT-549 breast; A549 NSCLC; NCI-H23 lung; EKVX NSCLC; NCI/ADR-RES ovarian; A498 renal; PC-3 prostate.
What all share (test): NCI-60 cell line screen, 48 h

With `COc1cc(C2c3cc4c(cc3OC(NCCc3ccccc3)C2C)OCO4)cc(OC)c1OC` (configuration not stated), the TGI with DU-145 prostate is more than 100 µM; in the assay on OVCAR-4 ovarian, more than 47.7 µM; with SF-539 CNS, 1.23 µM; with UACC-257 melanoma, more than 85.5 µM; with HCC-2998 colon, 0.85 µM; in the assay with CCRF-CEM leukemia it was more than 62.3 µM. Besides, the TGI is more than 51.8 µM with ACHN renal; 27 µM in the assay on IGROV1 ovarian; more than 100 µM in the assay with SK-MEL-28 melanoma; 1.98 µM with SF-295 CNS; 2.18 µM in the assay with MDA-MB-435; more than 100 µM with SW-620 colon. Also, the TGI in the assay on OVCAR-5 ovarian was more than 100 µM; in the assay on BT-549 breast it was 22.7 µM; in the assay on A549 NSCLC it was more than 90.4 µM; with NCI-H23 lung, more than 20.9 µM; with EKVX NSCLC it was more than 94 µM; in the assay with NCI/ADR-RES ovarian it was more than 22.3 µM.

In the case of `CCOC(=O)c1sc2c(c1O)c(=O)n(-c1ccccc1)c(=S)n2-c1ccccc1`, the TGI in the assay with DU-145 prostate, with OVCAR-4 ovarian, with UACC-257 melanoma, in the assay on HCC-2998 colon, with CCRF-CEM leukemia and with ACHN renal was more than 100 µM in each case. Besides, the TGI in the assay with IGROV1 ovarian, in the assay with SK-MEL-28 melanoma, with SF-295 CNS, in the assay with MDA-MB-435, with SW-620 colon and with OVCAR-5 ovarian was more than 100 µM each time. For the same compound, the TGI with BT-549 breast, in the assay with A549 NSCLC and in the assay on NCI-H23 lung was more than 100 µM throughout.

With `O=C(Cn1c(=O)oc2ccc(C(=O)c3ccc(F)cc3)cc21)c1ccccc1`, the TGI with DU-145 prostate, in the assay with OVCAR-4 ovarian, in the assay with SF-539 CNS, in the assay with UACC-257 melanoma, with HCC-2998 colon and in the assay with CCRF-CEM leukemia was more than 100 µM in each case. Besides, the TGI with ACHN renal, in the assay on IGROV1 ovarian, in the assay with SK-MEL-28 melanoma, in the assay on MDA-MB-435, in the assay on SW-620 colon and with OVCAR-5 ovarian was more than 100 µM throughout. In addition, the TGI is more than 100 µM with A549 NSCLC; more than 100 µM with NCI-H23 lung; more than 100 µM in the assay with NCI/ADR-RES ovarian; 93.3 µM with A498 renal; more than 100 µM in the assay with PC-3 prostate.

As to `CCOC(=O)CCC(NC(=O)C(N)c1ccc([N+](=O)[O-])cc1)C(=O)NC(CCC(=O)OCC)C(=O)OCC` (configuration not stated), the TGI with UACC-257 melanoma, in the assay with HCC-2998 colon, in the assay on ACHN renal, in the assay with IGROV1 ovarian, with SK-MEL-28 melanoma and in the assay with SW-620 colon was more than 100 µM throughout. For the same compound, the TGI with OVCAR-5 ovarian, in the assay on BT-549 breast, in the assay on A549 NSCLC, in the assay on NCI-H23 lung, in the assay with EKVX NSCLC and in the assay on A498 renal was more than 100 µM each time. This compound also gave a TGI in the assay with PC-3 prostate of more than 100 µM.

Regarding `NS(=O)(=O)c1nnc(NC(=O)c2cccc([N+](=O)[O-])c2)s1`, the TGI with DU-145 prostate, in the assay with OVCAR-4 ovarian, with SF-539 CNS, in the assay on UACC-257 melanoma, with HCC-2998 colon and in the assay with ACHN renal was more than 100 µM each time. The TGI in the assay with SK-MEL-28 melanoma, with SF-295 CNS, with MDA-MB-435, with SW-620 colon, in the assay with OVCAR-5 ovarian and with BT-549 breast was more than 100 µM in each case. Moreover, the TGI in the assay on A549 NSCLC, in the assay on NCI-H23 lung, in the assay with EKVX NSCLC and in the assay on NCI/ADR-RES ovarian was more than 100 µM in each case.

With `CSC1=C(C(=O)Nc2ccc(C)cc2)C(N)=NC1=O`, the TGI in the assay on DU-145 prostate, with OVCAR-4 ovarian, in the assay with SF-539 CNS, with UACC-257 melanoma, in the assay on HCC-2998 colon and in the assay on CCRF-CEM leukemia was more than 100 µM in each case. Moreover, the TGI in the assay with ACHN renal, in the assay on IGROV1 ovarian, in the assay with SK-MEL-28 melanoma, in the assay with SF-295 CNS, in the assay with MDA-MB-435 and in the assay on SW-620 colon was more than 100 µM throughout. In addition, the TGI with NCI-H23 lung, with EKVX NSCLC and in the assay with NCI/ADR-RES ovarian was more than 100 µM throughout.

With `CCOC(=O)[C@@H]1ON2O[C@H](OC3CCCCC3c3ccccc3)C[C@H]3OC(=O)[C@@H]1C32` (some centres not stated), the TGI in the assay on DU-145 prostate was more than 100 µM; with SF-539 CNS, more than 100 µM; in the assay on UACC-257 melanoma, more than 100 µM; in the assay on HCC-2998 colon, more than 100 µM; in the assay with CCRF-CEM leukemia, 0.614 µM; in the assay on ACHN renal, more than 100 µM. The TGI with IGROV1 ovarian, with SF-295 CNS, in the assay on MDA-MB-435, in the assay on SW-620 colon, in the assay on OVCAR-5 ovarian and in the assay on A549 NSCLC was more than 100 µM each time. For the same compound, the TGI in the assay on NCI-H23 lung, with EKVX NSCLC, with NCI/ADR-RES ovarian and in the assay with A498 renal was more than 100 µM each time.

Regarding `CCOC(=O)N(C)C(=C(F)F)C(F)(F)F`, the TGI in the assay with DU-145 prostate is more than 100 µM; with OVCAR-4 ovarian it was 90.8 µM; in the assay on SF-539 CNS, 78.3 µM; in the assay on UACC-257 melanoma, more than 100 µM; with HCC-2998 colon it was 37.7 µM; in the assay with CCRF-CEM leukemia, 75.8 µM. Also, the TGI in the assay on IGROV1 ovarian was 62.4 µM; in the assay on SK-MEL-28 melanoma it was more than 100 µM; with SF-295 CNS it was more than 100 µM; in the assay with MDA-MB-435, 46.2 µM; with SW-620 colon it was 67.9 µM; with OVCAR-5 ovarian, more than 100 µM. For the same compound, the TGI with A549 NSCLC is more than 100 µM; with NCI-H23 lung, 69.8 µM; in the assay with EKVX NSCLC, 89.2 µM; in the assay with NCI/ADR-RES ovarian, more than 100 µM; in the assay with PC-3 prostate, more than 100 µM.

In the case of `COc1cc(C2C(C(=O)Nc3ccc([N+](=O)[O-])cc3)=C(C)NC(C)=C2C(=O)Nc2ccc([N+](=O)[O-])cc2)ccc1O`, the TGI in the assay with OVCAR-4 ovarian was more than 70.8 µM; with SF-539 CNS, 41.1 µM; in the assay with UACC-257 melanoma, 54.6 µM; with HCC-2998 colon it was 40.3 µM; in the assay with CCRF-CEM leukemia, more than 100 µM; with ACHN renal it was more than 67.2 µM. Also, the TGI was 65.4 µM in the assay with IGROV1 ovarian; 31.3 µM with SK-MEL-28 melanoma; 65.7 µM in the assay with SF-295 CNS; 52.3 µM with SW-620 colon; more than 95.8 µM in the assay on OVCAR-5 ovarian; more than 100 µM in the assay with A549 NSCLC. Further, the TGI in the assay on NCI-H23 lung was more than 77.1 µM; in the assay with EKVX NSCLC, more than 100 µM; in the assay on A498 renal, 99.8 µM.
